Active and inactive are the calls of the source. No cut-off for these calls is given here.
Key:
Type in all cases: nucleic-acid assay
Nucleic Acid [1] = assay: Binding affinity to telomeric G-quadruplex DNA 5'-d(AGGGTTAGGGTTAGGGTTAGGG) assessed as increase in melting temperature at 2 uM by UV thermal denaturation analysis
Nucleic Acid [2] = assay: Binding affinity to telomeric G-quadruplex DNA 5'-d(AGGGTTAGGGTTAGGGTTAGGG) by UV titration method
Nucleic Acid [3] = assay: Induction of telomeric [32P] G-quadruplex DNA 5'-d(AOxodGGTTAGGGTTAGGGTTAGGGTGTT) assessed as adducts decomposition half life at 4 uM for 30 mins in presence of Na2IrCl6 by PAGE method
Nucleic Acid [4] = assay: Binding affinity to telomeric G-quadruplex DNA 5'-d(AGGGTTAGGGTTAGGGTTAGGG) at 1 to 10 uM by CD titration method in presence of 100 mM of KCl
Nucleic Acid [5] = assay: Induction of telomeric [32P] G-quadruplex DNA 5'-d(GOxodGTTAGGGTTAGGGTTAGGGTTAGGG) assessed as adducts decomposition half life at 4 uM for 30 mins in presence of Na2IrCl6 by PAGE method
Nucleic Acid [6] = assay: Induction of telomeric [32P] G-quadruplex DNA 5'-d(AGGGTTAGOxodGGTTAGGGTTAGGGTGTT) adduct formation at 4 uM for 30 mins in presence of Na2IrCl6 by PAGE method
Nucleic Acid [7] = assay: Binding affinity to telomeric G-quadruplex DNA 5'-d(AGGGTTAGOxodGGTTAGGGTTAGGGTGTT) at 1 to 10 uM by CD titration method in presence of 100 mM of KCl
Nucleic Acid [8] = assay: Induction of telomeric [32P] G-quadruplex DNA 5'-d(AGGGTTAGGGTTAOxodGGGGTTAGGGTGTT) adduct formation at 4 uM for 30 mins in presence of Na2IrCl6 by PAGE method
Nucleic Acid [9] = assay: Binding affinity to telomeric Duplex DNA 5'-d(CGTTCAGAGCCGOxodGTTACGTCCTTCAT) 3'-d(CGAAGTCTGGCCAATGCAGGAAGTA) at 1 to 10 uM by CD titration method in presence of 100 mM of KCl
Nucleic Acid [10] = assay: Binding affinity to telomeric G-quadruplex DNA 5'-d(AOxodGGTTAGGGTTAGGGTTAGGGTGTT) at 1 to 10 uM by CD titration method in presence of 100 mM of KCl
Nucleic Acid [11] = assay: Binding affinity to telomeric G-quadruplex DNA 5'[32P]-d(AGGGTTAGGGTTAOxodGGGGTTAGGGTGTT) at 1 to 10 uM by CD titration method in presence of 100 mM of KCl
Nucleic Acid [12] = assay: Induction of telomeric [32P] Duplex DNA 5'-d(CGTTCAGAGCCGOxodGTTACGTCCTTCAT) 3'-d(CGAAGTCTGGCCAATGCAGGAAGTA) adduct formation at 4 uM for 30 mins in presence of Na2IrCl6 by PAGE method
Nucleic Acid [13] = assay: Binding affinity to telomeric G-quadruplex DNA 5'-d(GOxodGTTAGGGTTAGGGTTAGGGTTAGGG) at 1 to 10 uM by CD titration method in presence of 100 mM of KCl
Nucleic Acid [14] = assay: Induction of telomeric [32P] G-quadruplex DNA 5'-d(GOxodGTTAGGGTTAGGGTTAGGGTTAGGG) adduct formation at 4 uM for 30 mins in presence of Na2IrCl6 by PAGE method
Nucleic Acid [15] = assay: Induction of telomeric [32P] G-quadruplex DNA 5'-d(AOxodGGTTAGGGTTAGGGTTAGGGTGTT) adduct formation at 4 uM for 30 mins in presence of Na2IrCl6 by PAGE method

| SMILES | Tm (Nucleic Acid [1]) | Kd (Nucleic Acid [2]) | T1/2 (Nucleic Acid [3]) | Activity (Nucleic Acid [4]) | T1/2 (Nucleic Acid [5]) | Activity (Nucleic Acid [6]) | Activity (Nucleic Acid [7]) | Activity (Nucleic Acid [8]) | Activity (Nucleic Acid [9]) | Activity (Nucleic Acid [10]) | Activity (Nucleic Acid [11]) | Activity (Nucleic Acid [12]) | Activity (Nucleic Acid [13]) | Activity (Nucleic Acid [14]) | Activity (Nucleic Acid [15]) |
| --- | --- | --- | --- | --- | --- | --- | --- | --- | --- | --- | --- | --- | --- | --- | --- |
| NCC(CN)CCC(=O)NCCCN1C(=O)c2ccc3c4ccc5c6c(ccc(c7ccc(c2c37)C1=O)c64)C(=O)N(CCCNC(=O)CCC(CN)CN)C5=O | 5.2 °C | 860 nM | 36 h | Active | 36 h | inactive | inactive | inactive | Active | Active | Active | Active | Active | Active | Active |
| NCCCNCCCCNCCCN1C(=O)c2ccc3c4ccc5c6c(ccc(c7ccc(c2c37)C1=O)c64)C(=O)N(CCCNCCCCNCCCN)C5=O | – | – | – | – | – | – | – | – | – | – | – | – | – | Active | – |
